Results from paper PMC9964680, “Novel TDP1 Inhibitors: Disubstituted Thiazolidine-2,4-Diones Containing Monoterpene Moieties” (International Journal of Molecular Sciences, 2023).

Molecular target: T1, Human recombinant TDP1 (Homo sapiens, UniProt Q9NUW8)
T1 construct: made in house
Test: Real-time oligonucleotide biosensor assay of TDP1 activity
Assay type: biochemical
Details: 1.5 nM TDP1, 50 nM biosensor, 26 °C, at least three experiments
Description: The inhibiting activity of the compounds against TDP1 was investigated using a real-time oligonucleotide biosensor assay.
The biosensor (5′-[FAM] AAC GTC AGGGTC TTC C [BHQ]-3′) was synthesized in the Laboratory of Nucleic Acid Chemistry at the Institute of Chemical Biology and Fundamental Medicine (Novosibirsk, Russia) and was used for TDP1 enzyme activity real-time fluorescence detection. The reaction mixture (200 µL) contained a TDP1 reaction buffer (50 mM Tris-HCl, pH 8.0, 50 mM NaCl, and 7 mM β-mercaptoethanol), 50 nM oligonucleotide, varied concentrations of the tested compounds, and purified TDP1 in a final concentration of 1.5 nM. The recombinant TDP1 was purified to homogeneity by chromatography on Ni-chelating resin and phosphocellulose P11, as described, using plasmid pET 16B-TDP1, kindly provided by Dr. K.W. Caldecott (University of Sussex, United Kingdom).
The reaction mixtures were incubated at a constant temperature of 26 °C in a POLARstar OPTIMA fluorimeter (BMG LABTECH, GmbH, Ortenberg, Germany). Fluorescence intensity was measured (Ex485/Em520 nm) every 1 min for 10 min. The average values of the half maximal inhibitory concentration (IC50) were determined using a six-point concentration response curve and calculated using MARS Data Analysis 2.0 (BMG LABTECH). The 50% inhibitory concentration (IC50) was defined as the concentration of the compound that inhibited 50% of the enzyme activity, when compared to the untreated controls. At least three independent experiments were carried out to obtain the IC50 values.

T1 sequence (Q9NUW8 whole entry): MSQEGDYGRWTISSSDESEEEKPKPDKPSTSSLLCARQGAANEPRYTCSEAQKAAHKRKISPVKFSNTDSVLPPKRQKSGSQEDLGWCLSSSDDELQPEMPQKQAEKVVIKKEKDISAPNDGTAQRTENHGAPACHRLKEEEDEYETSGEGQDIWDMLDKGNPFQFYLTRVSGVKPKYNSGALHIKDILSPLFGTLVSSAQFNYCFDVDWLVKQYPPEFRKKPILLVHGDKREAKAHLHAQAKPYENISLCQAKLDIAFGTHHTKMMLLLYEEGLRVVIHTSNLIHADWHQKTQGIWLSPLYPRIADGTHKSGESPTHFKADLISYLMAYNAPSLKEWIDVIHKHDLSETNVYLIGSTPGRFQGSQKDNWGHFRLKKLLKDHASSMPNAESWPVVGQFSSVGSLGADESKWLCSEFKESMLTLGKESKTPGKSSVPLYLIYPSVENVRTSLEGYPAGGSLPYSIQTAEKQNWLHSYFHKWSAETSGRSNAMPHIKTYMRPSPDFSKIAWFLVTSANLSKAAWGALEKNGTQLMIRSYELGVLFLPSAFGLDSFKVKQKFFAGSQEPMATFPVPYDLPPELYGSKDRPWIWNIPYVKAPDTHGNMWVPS

| Structure (SMILES) | TDP1 inhibitory activity IC50 |
| --- | --- |
| CC(C)=CCC/C(C)=C/CN1C(=O)S/C(=C\c2ccc(Br)s2)C1=O [Compound 20b, (Z)-5-((5-bromothiophen-2-yl)methylene)-3-((E)-3,7-dimethylocta-2,6-dienyl)thiazolidine-2,4-dione] | did not show affinity for the enzyme |
| CC(C)=CCC/C(C)=C/CN1C(=O)S/C(=C\c2cc(Br)cs2)C1=O [Compound 20d, (Z)-5-((4-bromothiophen-2-yl)methylene)-3-((E)-3,7-dimethylocta-2,6-dienyl)thiazolidine-2,4-dione] | submicromolar |
| CC1(C)[C@H]2CC=C(CCN3C(=O)S/C(=C\c4cc(Br)cs4)C3=O)[C@@H]1C2 [Compound 21d, (Z)-5-((4-bromothiophen-2-yl)methylene)-3-(2-((1R,5S)-6,6-dimethylbicyclo[3.1.1]hept-2-en-2-yl)ethyl)thiazolidine-2,4-dione] | submicromolar |

Same assay, conditions: 1.5 nM TDP1, 50 nM biosensor, 26 °C, at least three experiments; read-out: TDP1 inhibitory activity IC50

| Structure (SMILES) | IC50 |
| --- | --- |
| O=C1NC(=O)/C(=C/c2ccco2)S1 [Compound 18a, (Z)-5-(furan-2-ylmethylene)thiazolidine-2,4-dione] | > 100000 nM |
| O=C1NC(=O)/C(=C/c2ccc(Br)s2)S1 [Compound 18b, (Z)-5-((5-bromothiophen-2-yl)methylene)thiazolidine-2,4-dione] | 1100 ± 200 nM |
| O=C1NC(=O)/C(=C/c2cccs2)S1 [Compound 18c, (Z)-5-(thiophen-2-ylmethylene)thiazolidine-2,4-dione] | > 100000 nM |
| O=C1NC(=O)/C(=C/c2cc(Br)cs2)S1 [Compound 18d, (Z)-5-((4-bromothiophen-2-yl)methylene)thiazolidine-2,4-dione] | > 100000 nM |
| Cc1ccc(/C=C2\SC(=O)NC2=O)s1 [Compound 18e, (Z)-5-((5-methylthiophen-2-yl)methylene)thiazolidine-2,4-dione] | > 100000 nM |
| O=C1NC(=O)/C(=C/c2ccc(Br)cc2)S1 [Compound 18f, (Z)-5-(4-bromobenzylidene)thiazolidine-2,4-dione] | > 100000 nM |
| CC1=CC[C@@H](C/C=C2\SC(=O)NC2=O)C1(C)C [Compound 18g, (S,Z)-5-(2-(2,2,3-Trimethylcyclopent-3-enyl)ethylene)thiazolidine-2,4-dione] | > 100000 nM |
| O=C1S/C(=C\c2ccco2)C(=O)N1Cc1ccccc1 [Compound 19a, (Z)-3-Benzyl-5-(furan-2-ylmethylene)thiazolidine-2,4-dione] | > 100000 nM |
| O=C1S/C(=C\c2ccc(Br)s2)C(=O)N1Cc1ccccc1 [Compound 19b, (Z)-3-Benzyl-5-((5-bromothiophen-2-yl)methylene)thiazolidine-2,4-dione] | 1900 ± 300 nM |
| O=C1S/C(=C\c2cccs2)C(=O)N1Cc1ccccc1 [Compound 19c, (Z)-3-Benzyl-5-(thiophen-2-ylmethylene)thiazolidine-2,4-dione] | > 100000 nM |
| O=C1S/C(=C\c2cc(Br)cs2)C(=O)N1Cc1ccccc1 [Compound 19d, (Z)-3-Benzyl-5-((4-bromothiophen-2-yl)methylene)thiazolidine-2,4-dione] | > 100000 nM |
| Cc1ccc(/C=C2\SC(=O)N(Cc3ccccc3)C2=O)s1 [Compound 19e, (Z)-3-Benzyl-5-((5-methylthiophen-2-yl)methylene)thiazolidine-2,4-dione] | > 100000 nM |
| O=C1S/C(=C\c2ccc(Br)cc2)C(=O)N1Cc1ccccc1 [Compound 19f, (Z)3-benzyl-5-(4-bromobenzylidene)thiazolidine-2,4-dione] | 1600 ± 300 nM |
| CC1=CC[C@@H](C/C=C2\SC(=O)N(Cc3ccccc3)C2=O)C1(C)C [Compound 19g, (S,Z)-3-Benzyl-5-(2-(2,2,3-trimethylcyclopent-3-enyl)ethylidene)thiazolidine-2,4-dione] | 2400 ± 1100 nM |
| CC(C)=CCC/C(C)=C/CN1C(=O)S/C(=C\c2ccco2)C1=O [Compound 20a, (Z)-3-((E)-3,7-dimethylocta-2,6-dienyl)-5-(furan-2-ylmethylene)thiazolidine-2,4-dione] | 3400 ± 100 nM |
| CC(C)=CCC/C(C)=C/CN1C(=O)S/C(=C\c2ccc(Br)s2)C1=O [Compound 20b, (Z)-5-((5-bromothiophen-2-yl)methylene)-3-((E)-3,7-dimethylocta-2,6-dienyl)thiazolidine-2,4-dione] | > 100000 nM |
| CC(C)=CCC/C(C)=C/CN1C(=O)S/C(=C\c2cccs2)C1=O [Compound 20c, (Z)-3-((E)-3,7-dimethylocta-2,6-dienyl)-5-(thiophen-2-ylmethylene)thiazolidine-2,4-dione] | > 100000 nM |
| CC(C)=CCC/C(C)=C/CN1C(=O)S/C(=C\c2cc(Br)cs2)C1=O [Compound 20d, (Z)-5-((4-bromothiophen-2-yl)methylene)-3-((E)-3,7-dimethylocta-2,6-dienyl)thiazolidine-2,4-dione] | 650 ± 70 nM |
| CC(C)=CCC/C(C)=C/CN1C(=O)S/C(=C\c2ccc(C)s2)C1=O [Compound 20e, (Z)-3-((E)-3,7-dimethylocta-2,6-dienyl)-5-((5-methylthiophen-2-yl)methylene)-thiazolidine-2,4-dione] | 2900 ± 100 nM |
| CC(C)=CCC/C(C)=C/CN1C(=O)S/C(=C\c2ccc(Br)cc2)C1=O [Compound 20f, (Z)-5-(4-bromobenzylidene)-3-((E)-3,7-dimethylocta-2,6-dienyl)thiazolidine-2,4-dione] | > 100000 nM |
| CC(C)=CCC/C(C)=C/CN1C(=O)S/C(=C\C[C@@H]2CC=C(C)C2(C)C)C1=O [Compound 20g] | 4100 ± 100 nM |
| CC1(C)[C@H]2CC=C(CCN3C(=O)S/C(=C\c4cccs4)C3=O)[C@@H]1C2 [Compound 21c, (Z)-3-(2-((1R,5S)-6,6-dimethylbicyclo[3.1.1]hept-2-en-2-yl)ethyl)-5-(thiophen-2-ylmethylene)thiazolidine-2,4-dione] | > 100000 nM |
| CC1(C)[C@H]2CC=C(CCN3C(=O)S/C(=C\c4cc(Br)cs4)C3=O)[C@@H]1C2 [Compound 21d, (Z)-5-((4-bromothiophen-2-yl)methylene)-3-(2-((1R,5S)-6,6-dimethylbicyclo[3.1.1]hept-2-en-2-yl)ethyl)thiazolidine-2,4-dione] | 550 ± 70 nM |
| Cc1ccc(/C=C2\SC(=O)N(CCC3=CC[C@H]4C[C@@H]3C4(C)C)C2=O)s1 [Compound 21e, (Z)-3-(2-((1R,5S)-6,6-dimethylbicyclo[3.1.1]hept-2-en-2-yl)ethyl)-5-((5-methylthiophen-2-yl)methylene)thiazolidine-2,4-dione] | 2300 ± 100 nM |
| CC1(C)[C@H]2CC=C(CCN3C(=O)S/C(=C\c4ccc(Br)cc4)C3=O)[C@@H]1C2 [Compound 21f, (Z)-5-(4-bromobenzylidene)-3-(2-((1R,5S)-6,6-dimethylbicyclo[3.1.1]hept-2-en-2-yl)ethyl)thiazolidine-2,4-dione] | > 100000 nM |
| CC1=CCC(CC=C2SC(=O)N(CCC3=CCC4CC3C4(C)C)C2=O)C1(C)C [Compound 21g, (Z)-3-(2-(1R,5S)-6,6-dimethylbicyclo[3.1.1]hept-2-en-2-yl)ethyl)-5-(2-((S)-2,2,3-trimethylcyclopent-3-enyl)ethylidene)thiazolidine-2,4-dione] | 2400 ± 100 nM |

System: TDP1
Test: not given
Details: Figure 1, berberines; cited from earlier work

| Structure (SMILES) | IC50 |
| --- | --- |
| CCCS(=O)(=O)Oc1c(OC)cc(Br)c2c1CN1CCc3cc4c(cc3C1C2)OCO4 (stereo not drawn) [Compound 2] | 2900 nM |

Same assay, conditions: Figure 1, coumarins; cited from earlier work

| Structure (SMILES) | IC50 |
| --- | --- |
| COc1ccc(-c2cc(=O)oc3cc(OCCC4=CCC5CC4C5(C)C)ccc23)cc1 (stereo not drawn) [Compound 3] | 910 nM |

Same assay, conditions: Figure 1, isoquinolines; cited from earlier work

| Structure (SMILES) | IC50 |
| --- | --- |
| COc1cccc2c1-c1c(c3ccc([N+](=O)[O-])cc3c(=O)n1CCCN)C2=O [Compound 5] | 5500 nM |

Same assay, conditions: Figure 1, resin acid derivatives; cited from earlier work

| Structure (SMILES) | IC50 |
| --- | --- |
| CC(C)c1ccc2c(c1)CC[C@H]1[C@](C)(CNC(=O)CC34CC5CC(CC(C5)C3)C4)CCC[C@]21C [Compound 7] | 190 nM |

Same assay, conditions: Figure 1, steroids; cited from earlier work

| Structure (SMILES) | IC50 |
| --- | --- |
| CO[C@@H]1CC[C@]2(C)C3C[C@H](OC)[C@@]4(C)C(CC[C@@H]4[C@H](C)CCC(=O)Nc4ccc(Br)cc4)[C@@H]3CC[C@@H]2C1 (stereo partly drawn) [Compound 4] | 270 nM |

Same assay, conditions: Figure 1, terpenoadamantanes; cited from earlier work

| Structure (SMILES) | IC50 |
| --- | --- |
| CC(C)=CCC/C(C)=C/CSc1n[nH]c(C23CC4CC(CC(C4)C2)C3)n1 [Compound 8] | 5200 nM |

Same assay, conditions: Figure 1, thiazolidines; cited from earlier work

| Structure (SMILES) | IC50 |
| --- | --- |
| O=C1NC(=S)/C(=C/c2ccc(O)c(O)c2O)S1 [Compound 6] | 870 nM |
